The numbers were not newly measured in patent US9968537B2, “Anti-dandruff compositions and hair care formulations containing zinc pyrithione and quaternary ammonium salt” (JUBILANT LIFE SCIENCES LIMITED, priority 2013, dated 2018), which cites them from elsewhere.

The conditions of the data set: background statement.

Take `[O-][n+]1ccccc1S.[Zn]` [ZPTO, zinc pyridine-2-thiol-N-oxide]: the solubility in water is reported as 6-12 ppm.
